# Reference: patent publication US8841309B2, “Substituted pyrazines and their use in the treatment of disease” (Boehringer Ingelheim International GmbH, priority 2012, dated 2014)
# Molecular target: T1, ENaC (Mus musculus, UniProt Q61180+Q9WU38+Q9WU39)
# T1 construct: Mouse kidney M-1 cells were cultivated in DMEM containing 5% FCS and 5 μM dexamethasone; endogenous in cells; host or cells: mouse kidney M-1 cells
# T1 sequence (Q61180 1-699): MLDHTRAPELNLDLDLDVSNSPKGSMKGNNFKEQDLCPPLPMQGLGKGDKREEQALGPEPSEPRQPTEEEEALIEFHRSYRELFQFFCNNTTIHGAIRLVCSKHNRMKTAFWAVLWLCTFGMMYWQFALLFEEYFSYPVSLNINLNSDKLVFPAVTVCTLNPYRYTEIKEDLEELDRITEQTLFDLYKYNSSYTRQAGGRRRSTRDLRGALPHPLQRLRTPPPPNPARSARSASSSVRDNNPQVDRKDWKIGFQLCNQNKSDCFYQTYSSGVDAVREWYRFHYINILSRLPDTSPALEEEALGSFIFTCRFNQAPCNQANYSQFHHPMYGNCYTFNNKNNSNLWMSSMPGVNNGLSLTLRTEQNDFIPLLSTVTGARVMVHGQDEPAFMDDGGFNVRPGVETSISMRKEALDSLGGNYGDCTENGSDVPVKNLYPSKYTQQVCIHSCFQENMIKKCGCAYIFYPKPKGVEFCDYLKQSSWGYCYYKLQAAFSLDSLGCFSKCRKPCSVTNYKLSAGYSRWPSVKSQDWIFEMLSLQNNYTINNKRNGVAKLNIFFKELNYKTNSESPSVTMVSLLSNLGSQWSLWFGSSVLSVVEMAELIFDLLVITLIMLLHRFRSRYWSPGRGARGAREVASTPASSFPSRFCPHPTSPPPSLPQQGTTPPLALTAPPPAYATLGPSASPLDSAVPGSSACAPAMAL
# T1 sequence (Q9WU38 1-638): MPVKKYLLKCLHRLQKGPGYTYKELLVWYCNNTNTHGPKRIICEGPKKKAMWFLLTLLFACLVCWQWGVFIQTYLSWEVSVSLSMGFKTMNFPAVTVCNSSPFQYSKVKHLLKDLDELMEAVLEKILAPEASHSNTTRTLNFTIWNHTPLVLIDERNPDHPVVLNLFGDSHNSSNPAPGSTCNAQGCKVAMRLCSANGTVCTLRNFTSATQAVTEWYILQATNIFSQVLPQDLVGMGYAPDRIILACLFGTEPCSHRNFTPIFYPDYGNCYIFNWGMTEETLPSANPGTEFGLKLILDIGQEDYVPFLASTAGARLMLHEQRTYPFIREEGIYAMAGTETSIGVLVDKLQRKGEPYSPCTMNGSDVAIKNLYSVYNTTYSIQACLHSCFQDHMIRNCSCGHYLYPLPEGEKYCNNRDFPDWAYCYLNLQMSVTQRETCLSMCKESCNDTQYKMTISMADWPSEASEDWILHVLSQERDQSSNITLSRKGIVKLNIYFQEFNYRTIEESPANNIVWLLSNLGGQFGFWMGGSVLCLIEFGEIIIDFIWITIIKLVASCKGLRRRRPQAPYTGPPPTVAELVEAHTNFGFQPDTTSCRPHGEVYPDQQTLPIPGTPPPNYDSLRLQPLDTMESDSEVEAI
# T1 sequence (Q9WU39 1-655): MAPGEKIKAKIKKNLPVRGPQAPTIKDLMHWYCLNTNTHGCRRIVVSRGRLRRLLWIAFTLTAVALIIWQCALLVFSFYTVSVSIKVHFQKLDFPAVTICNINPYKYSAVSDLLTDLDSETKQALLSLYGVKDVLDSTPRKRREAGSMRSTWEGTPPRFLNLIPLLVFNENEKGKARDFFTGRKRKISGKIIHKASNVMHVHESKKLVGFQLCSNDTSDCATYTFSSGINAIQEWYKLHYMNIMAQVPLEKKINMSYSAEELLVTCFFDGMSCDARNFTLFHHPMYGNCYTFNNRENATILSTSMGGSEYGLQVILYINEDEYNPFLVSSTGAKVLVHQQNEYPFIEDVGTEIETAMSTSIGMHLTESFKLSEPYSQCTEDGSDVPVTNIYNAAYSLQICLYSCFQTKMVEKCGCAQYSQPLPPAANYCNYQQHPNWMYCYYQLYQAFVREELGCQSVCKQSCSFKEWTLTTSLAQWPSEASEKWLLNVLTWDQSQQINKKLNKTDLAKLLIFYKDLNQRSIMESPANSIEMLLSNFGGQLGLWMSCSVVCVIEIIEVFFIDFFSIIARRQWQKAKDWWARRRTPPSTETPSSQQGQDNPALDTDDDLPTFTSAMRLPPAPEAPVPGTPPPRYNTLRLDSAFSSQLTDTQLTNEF
# Experiment: Ussing chamber: short circuit current (I_sc) in mouse kidney M-1 cells, amiloride-sensitive
# Assay type: cell-based
# Settings: compound applied to apical solution, 37° C.
# Method: Ussing Chamber: Mouse kidney M-1 cells were cultivated in DMEM containing 5% FCS and 5 μM dexamethasone for 10 to 12 days on polyester transwell filters. Filters were inserted into a teflon-coated well-plate which fit into the in-house ussing chamber system. Prior to measurement the medium of M-1 cells was replaced with Caco-2 transport buffer (Invitrogen, Germany). During measurements, the Ussing chamber temperature was kept at 37° C. Short circuit currents (I_sc) were measured in the voltage-clamp mode using an in-house built amplifier (Boehringer Ingelheim, Biberach) with the software package Lab View for data acquisition and analysis. The transepithelial electrical resistance (TEER) was determined by the application of voltage steps of ±5 mV every 5 sec. Compounds were administered at a final concentration of 3 μM or at increasing concentrations (1-3-10 μM) to the apical solution. At the end of each experiment the amiloride sensitive I_SC was measured by adding 3 μM amiloride to the apical compartment. Results are expressed as inhibition in percent of the amiloride effect or as IC50.
row,SMILES,IC50
1,NC(=NC(=O)c1nc(Cl)c(N)nc1N)N[C@@H]1C[N+]2(Cc3ccc(OCc4ccccc4)cc3)CCC1CC2 [Example 19],32 nM
2,NC(=NC(=O)c1nc(Cl)c(N)nc1N)N[C@@H]1C[N+]2(Cc3nc4ccccc4s3)CCC1CC2 [Example 20],29 nM
3,CS(=O)(=O)c1ccc(C[N+]23CCC(CC2)[C@H](NC(N)=NC(=O)c2nc(Cl)c(N)nc2N)C3)cc1 [Example 21],176 nM
4,COc1ccccc1C[N+]12CCC(CC1)[C@H](NC(N)=NC(=O)c1nc(Cl)c(N)nc1N)C2 [Example 22],92 nM
5,CC#CC[N+]12CCC(CC1)[C@H](NC(N)=NC(=O)c1nc(Cl)c(N)nc1N)C2 [Example 23],172 nM
6,CCNC(=O)C[N+]12CCC(CC1)[C@H](NC(N)=NC(=O)c1nc(Cl)c(N)nc1N)C2 [Example 24],56 nM
7,NC(=O)c1ccc(C[N+]23CCC(CC2)[C@H](NC(N)=NC(=O)c2nc(Cl)c(N)nc2N)C3)cc1 [Example 25],693 nM
8,NC(=NC(=O)c1nc(Cl)c(N)nc1N)N[C@@H]1C[N+]2(Cc3ccc(F)c(Cl)c3)CCC1CC2 [Example 26],13 nM
9,NC(=NC(=O)c1nc(Cl)c(N)nc1N)N[C@@H]1C[N+]2(Cc3cccc(Cl)c3)CCC1CC2 [Example 27],12 nM
10,COc1cc(C[N+]23CCC(CC2)[C@H](NC(N)=NC(=O)c2nc(Cl)c(N)nc2N)C3)cc(OC)c1 [Example 28],80 nM
11,NC(=NC(=O)c1nc(Cl)c(N)nc1N)N[C@@H]1C[N+]2(Cc3ccc(Cl)s3)CCC1CC2 [Example 29],29 nM
12,CCN(CC)C(=O)C[N+]12CCC(CC1)[C@H](NC(N)=NC(=O)c1nc(Cl)c(N)nc1N)C2 [Example 30],35 nM
13,Cc1nc(C[N+]23CCC(CC2)[C@H](NC(N)=NC(=O)c2nc(Cl)c(N)nc2N)C3)cs1 [Example 31],54 nM
14,N#Cc1ccc(C[N+]23CCC(CC2)[C@H](NC(N)=NC(=O)c2nc(Cl)c(N)nc2N)C3)cc1 [Example 32],202 nM
15,N#Cc1cccc(C[N+]23CCC(CC2)[C@H](NC(N)=NC(=O)c2nc(Cl)c(N)nc2N)C3)c1 [Example 33],38 nM
16,NC(=NC(=O)c1nc(Cl)c(N)nc1N)N[C@@H]1C[N+]2(CC(=O)NCc3ccccc3)CCC1CC2 [Example 34],7 nM
17,NC(=NC(=O)c1nc(Cl)c(N)nc1N)N[C@@H]1C[N+]2(Cc3cscn3)CCC1CC2 [Example 35],150 nM
18,NC(=NC(=O)c1nc(Cl)c(N)nc1N)N[C@@H]1C[N+]2(Cc3cc(F)cc(F)c3)CCC1CC2 [Example 36],30 nM
19,COc1cccc(C[N+]23CCC(CC2)[C@H](NC(N)=NC(=O)c2nc(Cl)c(N)nc2N)C3)c1OC [Example 37],34 nM
20,NC(=NC(=O)c1nc(Cl)c(N)nc1N)N[C@@H]1C[N+]2(Cc3ccc(F)c(F)c3)CCC1CC2 [Example 38],23 nM
21,NC(=NC(=O)c1nc(Cl)c(N)nc1N)N[C@@H]1C[N+]2(CC(=O)OCc3ccccc3)CCC1CC2 [Example 39],23 nM
22,NC(=NC(=O)c1nc(Cl)c(N)nc1N)N[C@@H]1C[N+]2(Cc3ccc(CC(=O)O)cc3)CCC1CC2 [Example 40],625 nM
23,NC(=NC(=O)c1nc(Cl)c(N)nc1N)N[C@@H]1C[N+]2(CC(=O)c3ccccc3)CCC1CC2 [Example 41],63 nM

row,SMILES,IC50
1,CCOC(=O)C[N+]12CCC(CC1)[C@H](NC(N)=NC(=O)c1nc(Cl)c(N)nc1N)C2 [Example 42],191 nM
2,NC(=NC(=O)c1nc(Cl)c(N)nc1N)N[C@@H]1C[N+]2(CC(=O)NCc3ccc(Cl)cc3)CCC1CC2 [Example 44],2 nM
3,NC(=NC(=O)c1nc(Cl)c(N)nc1N)N[C@@H]1C[N+]2(Cc3ccncc3)CCC1CC2 [Example 45],279 nM
4,CC(C)(C)OC(=O)c1ccc(C[N+]23CCC(CC2)[C@H](NC(N)=NC(=O)c2nc(Cl)c(N)nc2N)C3)cc1 [Example 46],267 nM
5,NC(=NC(=O)c1nc(Cl)c(N)nc1N)N[C@@H]1C[N+]2(Cc3nnsc3Cl)CCC1CC2 [Example 47],226 nM
6,NC(=NC(=O)c1nc(Cl)c(N)nc1N)N[C@@H]1C[N+]2(Cc3ccc(SC(F)(F)F)cc3)CCC1CC2 [Example 48],23 nM
7,CC(C)NC(=O)C[N+]12CCC(CC1)[C@H](NC(N)=NC(=O)c1nc(Cl)c(N)nc1N)C2 [Example 49],29 nM
8,NC(=NC(=O)c1nc(Cl)c(N)nc1N)N[C@@H]1C[N+]2(Cc3cccnc3)CCC1CC2 [Example 50],104 nM
9,NC(=NC(=O)c1nc(Cl)c(N)nc1N)N[C@@H]1C[N+]2(Cc3ccc(OC(F)(F)F)cc3)CCC1CC2 [Example 51],89 nM
10,CSc1ccc(C[N+]23CCC(CC2)[C@H](NC(N)=NC(=O)c2nc(Cl)c(N)nc2N)C3)cc1 [Example 52],67 nM
11,NC(=NC(=O)c1nc(Cl)c(N)nc1N)N[C@@H]1C[N+]2(CC3CCCCC3)CCC1CC2 [Example 53],70 nM
12,NC(=NC(=O)c1nc(Cl)c(N)nc1N)N[C@@H]1C[N+]2(Cc3ccccc3OC(F)(F)F)CCC1CC2 [Example 54],69 nM
13,NC(=NC(=O)c1nc(Cl)c(N)nc1N)N[C@@H]1C[N+]2(CC(=O)NCCc3ccccc3)CCC1CC2 [Example 55],1 nM
14,CSc1cccc(C[N+]23CCC(CC2)[C@H](NC(N)=NC(=O)c2nc(Cl)c(N)nc2N)C3)c1 [Example 56],12 nM
15,NC(=NC(=O)c1nc(Cl)c(N)nc1N)N[C@@H]1C[N+]2(CC(=O)N3CCOCC3)CCC1CC2 [Example 57],71 nM
16,NC(=NC(=O)c1nc(Cl)c(N)nc1N)N[C@@H]1C[N+]2(CC(=O)Nc3ccccc3)CCC1CC2 [Example 58],25 nM
17,COC(=O)c1ccc(CCNC(=O)C[N+]23CCC(CC2)[C@H](NC(N)=NC(=O)c2nc(Cl)c(N)nc2N)C3)cc1 [Example 61],2 nM
18,NC(=NC(=O)c1nc(Cl)c(N)nc1N)N[C@@H]1C[N+]2(CC(=O)N3CCN(c4ccccn4)CC3)CCC1CC2 [Example 62],20 nM
19,N#Cc1ccc(CNC(=O)C[N+]23CCC(CC2)[C@H](NC(N)=NC(=O)c2nc(Cl)c(N)nc2N)C3)cc1 [Example 63],30 nM
20,CCOC(=O)N1CCC(NC(=O)C[N+]23CCC(CC2)[C@H](NC(N)=NC(=O)c2nc(Cl)c(N)nc2N)C3)CC1 [Example 64],76 nM
21,CN(CCc1ccccc1)C(=O)C[N+]12CCC(CC1)[C@H](NC(N)=NC(=O)c1nc(Cl)c(N)nc1N)C2 [Example 65],2 nM
22,NC(=NC(=O)c1nc(Cl)c(N)nc1N)N[C@@H]1C[N+]2(CC(=O)N3CCN(c4ncccn4)CC3)CCC1CC2 [Example 66],22 nM
